{"source": "patent US20250026778A1", "about": "(TIUMBIO CO., LTD., priority 2021, published 2025)"}
{"target": "T1, his-galectin-3 (Homo sapiens, UniProt P17931)", "T1 construct": "purchased Abcam", "T1 sequence (P17931 whole entry)": "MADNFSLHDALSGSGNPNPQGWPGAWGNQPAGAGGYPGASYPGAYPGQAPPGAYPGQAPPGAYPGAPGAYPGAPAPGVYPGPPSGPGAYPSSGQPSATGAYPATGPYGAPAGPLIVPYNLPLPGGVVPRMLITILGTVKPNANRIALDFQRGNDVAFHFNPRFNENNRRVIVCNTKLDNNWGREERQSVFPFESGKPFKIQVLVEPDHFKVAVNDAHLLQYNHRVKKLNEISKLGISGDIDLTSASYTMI", "experiment": "TR-FRET assay (in vitro galectin-3 binding inhibitory activity test)", "conditions": "Table 1; compound at 20 μM; 60 nM his-galectin-3, 15 nM biotin-ASF; read-out: % Inhibitory activity (at 20 μM)", "summary_of_the_method": "(§1)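 Compound is premixed with his-galectin-3 (60 nM final), then biotin-ASF (15 nM), Tb anti-His antibody (2 nM) and streptavidin-d2 (20 nM) are added. After at least 3.5 hours at RT in HEPES/NaCl buffer with Tween 20 and BSA, TR-FRET is read at 615/665 nm. DMSO serves as the uninhibited control, ASF omission as background.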", "units": {"inhibition at 20 µM": "%"}}
{"smiles": "CC(=O)N[C@H]1C(O)O[C@H](CO)[C@@H](O[C@@H]2O[C@H](CO)[C@H](O)[C@H](O)[C@H]2O)[C@@H]1O", "note": "(stereo partly drawn) [LacNAc, N-acetyl-D-lactosamine, reference compound]", "inhibition at 20 µM": "< 25"}
{"target": "T1, his-galectin-3", "experiment": "TR-FRET assay (in vitro galectin-3 binding inhibitory activity test)", "conditions": "Table 2; compound at 20 μM; 60 nM his-galectin-3, 15 nM biotin-ASF; read-out: % Inhibitory activity (at 20 μM)", "summary_of_the_method": "as §1", "units": {"inhibition at 20 µM": "%"}}
{"smiles": "O=C(N[C@@H]1CCO[C@]12O[C@H](CO)[C@H](O)[C@H](n1cc(-c3cc(F)c(F)c(F)c3)nn1)[C@H]2O)c1cccc2ccncc12", "note": "[Compound A246, N-((4R,5S,7R,8R,9S,10R)-8,10-dihydroxy-7-(hydroxymethyl)-9-(4-(3,4,5-trifluorophenyl)-1H-1,2,3-triazol-1-yl)-1,6-dioxaspiro[4.5]decan-4-yl)isoquinoline-8-carboxamide]", "inhibition at 20 µM": "> 75"}
{"smiles": "O=C(N[C@@H]1CCO[C@]12O[C@H](CO)[C@H](O)[C@H](n1cc(-c3cc(F)c(F)c(F)c3)nn1)[C@H]2O)c1cccc2cnccc12", "note": "[Compound A247, N-((4R,5S,7R,8R,9S,10R)-8,10-dihydroxy-7-(hydroxymethyl)-9-(4-(3,4,5-trifluorophenyl)-1H-1,2,3-triazol-1-yl)-1,6-dioxaspiro[4.5]decan-4-yl)isoquinoline-5-carboxamide]", "inhibition at 20 µM": "> 75"}
{"smiles": "O=C(N[C@@H]1CCO[C@]12O[C@H](CO)[C@H](O)[C@H](n1cc(-c3cc(F)c(F)c(F)c3)nn1)[C@H]2O)c1csc2cccc(Br)c12", "note": "[Compound A248, 4-bromo-N-((4R,5S,7R,8R,9S,10R)-8,10-dihydroxy-7-(hydroxymethyl)-9-(4-(3,4,5-trifluorophenyl)-1H-1,2,3-triazol-1-yl)-1,6-dioxaspiro[4.5]decan-4-yl)benzo[b]thiophene-3-carboxamide]", "inhibition at 20 µM": "< 25"}
{"smiles": "O=C(N[C@@H]1CCO[C@]12O[C@H](CO)[C@H](O)[C@H](n1cc(-c3cc(F)c(F)c(F)c3)nn1)[C@H]2O)c1csc2ccc(F)cc12", "note": "[Compound A249, N-((4R,5S,7R,8R,9S,10R)-8,10-dihydroxy-7-(hydroxymethyl)-9-(4-(3,4,5-trifluorophenyl)-1H-1,2,3-triazol-1-yl)-1,6-dioxaspiro[4.5]decan-4-yl)-5-fluorobenzo[b]thiophene-3-carboxamide]", "inhibition at 20 µM": "> 75"}
{"smiles": "O=C(N[C@@H]1CCO[C@]12O[C@H](CO)[C@H](O)[C@H](n1cc(-c3cc(F)c(F)c(F)c3)nn1)[C@H]2O)c1coc2cccc(Br)c12", "note": "[Compound A250, 4-bromo-N-((4R,5S,7R,8R,9S,10R)-8,10-dihydroxy-7-(hydroxymethyl)-9-(4-(3,4,5-trifluorophenyl)-1H-1,2,3-triazol-1-yl)-1,6-dioxaspiro[4.5]decan-4-yl)benzofuran-3-carboxamide]", "inhibition at 20 µM": "> 75"}
{"smiles": "O=C(N[C@@H]1CCO[C@]12O[C@H](CO)[C@H](O)[C@H](n1cc(-c3cc(F)c(F)c(F)c3)nn1)[C@H]2O)c1csc2ccc(Br)cc12", "note": "[Compound A251, 5-bromo-N-((4R,5S,7R,8R,9S,10R)-8,10-dihydroxy-7-(hydroxymethyl)-9-(4-(3,4,5-trifluorophenyl)-1H-1,2,3-triazol-1-yl)-1,6-dioxaspiro[4.5]decan-4-yl)benzo[b]thiophene-3-carboxamide]", "inhibition at 20 µM": "> 75"}
{"smiles": "O=C(N[C@@H]1CCO[C@]12O[C@H](CO)[C@H](O)[C@H](n1cc(-c3cc(F)c(F)c(F)c3)nn1)[C@H]2O)c1cc(=O)[nH]c2ccc(Br)cc12", "note": "[Compound A252, 6-bromo-N-((4R,5S,7R,8R,9S,10R)-8,10-dihydroxy-7-(hydroxymethyl)-9-(4-(3,4,5-trifluorophenyl)-1H-1,2,3-triazol-1-yl)-1,6-dioxaspiro[4.5]decan-4-yl)-2-oxo-1,2-dihydroquinoline-4-carboxamide]", "inhibition at 20 µM": "> 75"}
{"smiles": "O=C(N[C@@H]1CCO[C@]12O[C@H](CO)[C@H](O)[C@H](n1cc(-c3cc(F)c(F)c(F)c3)nn1)[C@H]2O)c1c[nH]c2cccc(Br)c12", "note": "[Compound A253, 4-bromo-N-((4R,5S,7R,8R,9S,10R)-8,10-dihydroxy-7-(hydroxymethyl)-9-(4-(3,4,5-trifluorophenyl)-1H-1,2,3-triazol-1-yl)-1,6-dioxaspiro[4.5]decan-4-yl)-1H-indole-3-carboxamide]", "inhibition at 20 µM": "> 75"}
{"smiles": "O=C(N[C@@H]1CCO[C@]12O[C@H](CO)[C@H](O)[C@H](n1cc(-c3cc(F)c(F)c(F)c3)nn1)[C@H]2O)c1cc(=O)[nH]c2ccccc12", "note": "[Compound A254, N-((4R,5S,7R,8R,9S,10R)-8,10-dihydroxy-7-(hydroxymethyl)-9-(4-(3,4,5-trifluorophenyl)-1H-1,2,3-triazol-1-yl)-1,6-dioxaspiro[4.5]decan-4-yl)-2-oxo-1,2-dihydroquinoline-4-carboxamide]", "inhibition at 20 µM": "50 to 75"}
{"smiles": "O=C(N[C@@H]1CCO[C@]12O[C@H](CO)[C@H](O)[C@H](n1cc(-c3cc(F)c(F)c(F)c3)nn1)[C@H]2O)c1c[nH]c2cccc(F)c12", "note": "[Compound A255, N-((4R,5S,7R,8R,9S,10R)-8,10-dihydroxy-7-(hydroxymethyl)-9-(4-(3,4,5-trifluorophenyl)-1H-1,2,3-triazol-1-yl)-1,6-dioxaspiro[4.5]decan-4-yl)-4-fluoro-1H-indole-3-carboxamide]", "inhibition at 20 µM": "> 75"}
{"smiles": "O=C(N[C@@H]1CCO[C@]12O[C@H](CO)[C@H](O)[C@H](n1cc(-c3cc(F)c(F)c(F)c3)nn1)[C@H]2O)c1cccc2ccc(Cl)cc12", "note": "[Compound A256, 7-chloro-N-((4R,5S,7R,8R,9S,10R)-8,10-dihydroxy-7-(hydroxymethyl)-9-(4-(3,4,5-trifluorophenyl)-1H-1,2,3-triazol-1-yl)-1,6-dioxaspiro[4.5]decan-4-yl)-1-naphthamide]", "inhibition at 20 µM": "> 75"}
{"smiles": "CO[C@@H]1[C@@H](n2cc(-c3cc(F)c(F)c(F)c3)nn2)[C@@H](O)[C@@H](CO)O[C@@]12CCCO2", "note": "[Compound A257, (5S,7R,8R,9S,10R)-7-(hydroxymethyl)-10-methoxy-9-(4-(3,4,5-trifluorophenyl)-1H-1,2,3-triazol-1-yl)-1,6-dioxaspiro[4.5]decan-8-ol]", "inhibition at 20 µM": "25 to 50"}
{"target": "T1, his-galectin-3", "experiment": "TR-FRET assay (in vitro galectin-3 binding inhibitory activity test)", "conditions": "Table 3, found values; compound at 20 μM; 60 nM his-galectin-3, 15 nM biotin-ASF; read-out: % Inhibitory activity (at 20 μM)", "summary_of_the_method": "as §1", "units": {"inhibition at 20 µM": "%"}}
{"smiles": "O=C(N[C@@H]1CCO[C@]12O[C@H](CO)[C@H](O)[C@H](n1cc(-c3cc(F)c(F)c(F)c3)nn1)[C@H]2O)c1csc2ccc(F)cc12", "note": "[Compound A249, N-((4R,5S,7R,8R,9S,10R)-8,10-dihydroxy-7-(hydroxymethyl)-9-(4-(3,4,5-trifluorophenyl)-1H-1,2,3-triazol-1-yl)-1,6-dioxaspiro[4.5]decan-4-yl)-5-fluorobenzo[b]thiophene-3-carboxamide]", "inhibition at 20 µM": 89.9}
{"smiles": "CO[C@@H]1[C@@H](n2cc(-c3cc(F)c(F)c(F)c3)nn2)[C@@H](O)[C@@H](CO)O[C@@]12CCCO2", "note": "[Compound A257, (5S,7R,8R,9S,10R)-7-(hydroxymethyl)-10-methoxy-9-(4-(3,4,5-trifluorophenyl)-1H-1,2,3-triazol-1-yl)-1,6-dioxaspiro[4.5]decan-8-ol]", "inhibition at 20 µM": 39.2}
